Molecular target: human activated kallikrein enzyme (Homo sapiens (Human), UniProt P03952)
Assay: Plasma kallikrein inhibition assay with fluorogenic peptide substrate, 500 pM activated kallikrein format
Type: biochemical
Settings: 500 pM activated kallikrein; 300 uM Pro-Phe-Arg-7-amido-4-methylcoumarin substrate; 30 min preincubation, 10 min reaction at RT; read-out: Primary Dose Response Assay: Average EC50
Protocol: Example compounds were evaluated for inhibition of the human activated kallikrein enzyme in two formats of an assay employing a fluorogenic peptide substrate. In one assay format, the concentrations of reagents were as follows: 20 mM Tris pH 7.5, 1 mM EDTA, 150 mM sodium chloride, 0.1% PEG-400, 0.1% Triton X-100, […], 300 uM Pro-Phe-Arg-7-amido-4-methylcoumarin substrate. Prior to reaction initiation with substrate, enzyme and inhibitors were preincubated for 30 min at RT. After initiation with substrate, reactions were incubated for 10 min at RT and fluorescence emission at 460 nm from 380 nm excitation measured with a microplate reader. In another assay format, the concentrations of reagents were as follows: 20 mM Tris pH 7.5, 1 mM EDTA, 150 mM sodium chloride, 0.1% PEG-400, 0.1% Triton X-100, 5 pM activated kallikrein enzyme, 300 uM Pro-Phe-Arg-7-amido-4-methylcoumarin substrate. Prior to reaction initiation with substrate, enzyme and inhibitors were preincubated for 30 min at RT. After initiation with substrate, reactions were incubated for 18 h at RT and fluorescence emission at 460 nm from 380 nm excitation measured with a microplate reader.
Table II provides the results of the assay in the format with 500 pM activated kallikrein assay.
Table III provides comparative plasma kallikrein inhibition potency in the assay format with 500 pM activated kallikrein assay (described in detail in the preceding example).

human activated kallikrein enzyme, sequence (P03952 391-638): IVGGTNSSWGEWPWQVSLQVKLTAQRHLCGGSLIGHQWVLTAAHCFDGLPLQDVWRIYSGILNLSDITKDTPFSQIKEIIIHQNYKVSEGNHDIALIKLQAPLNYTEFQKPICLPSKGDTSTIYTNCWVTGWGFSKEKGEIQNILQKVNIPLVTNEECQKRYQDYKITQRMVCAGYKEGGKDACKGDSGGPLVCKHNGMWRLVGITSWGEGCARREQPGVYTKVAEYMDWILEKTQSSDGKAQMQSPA
human activated kallikrein enzyme, sequence (P03952 20-390 partner): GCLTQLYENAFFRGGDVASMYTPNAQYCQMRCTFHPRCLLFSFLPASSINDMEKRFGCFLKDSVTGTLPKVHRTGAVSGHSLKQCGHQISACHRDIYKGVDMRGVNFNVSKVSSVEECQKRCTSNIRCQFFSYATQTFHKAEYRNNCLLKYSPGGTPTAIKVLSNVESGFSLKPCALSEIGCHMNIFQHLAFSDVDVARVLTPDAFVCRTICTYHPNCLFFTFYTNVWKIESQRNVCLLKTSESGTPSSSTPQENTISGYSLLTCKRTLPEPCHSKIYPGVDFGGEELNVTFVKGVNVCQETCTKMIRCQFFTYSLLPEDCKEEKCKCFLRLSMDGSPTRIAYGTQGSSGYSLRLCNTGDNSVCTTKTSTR

EC50 | Structure (SMILES)
≤ 0.001 µM | Cc1cc(N)nc(C)c1CNC(=O)c1cn(Cc2cn3cc(C4CC4)ccc3n2)nn1 [Example I-26, N-((6-amino-2,4-dimethylpyridin-3-yl)methyl)-1-((6-cyclopropylimidazo[1,2-a]pyridin-2-yl)methyl)-1H-1,2,3-triazole-4-carboxamide]
0.001 to 0.01 µM | COc1ccc(-n2cnnn2)c(CNCc2cn(Cc3cn4cc(C5CC5)ccc4n3)nn2)c1F [Example I-29, 1-(1-((6-cyclopropylimidazo[1,2-a]pyridin-2-yl)methyl)-1H-1,2,3-triazol-4-yl)-N-(2-fluoro-3-methoxy-6-(1H-tetrazol-1-yl)benzyl)methanamine]
0.1 to 2 µM | O=S(=O)(NCc1c(-n2cnnn2)ccc(Cl)c1F)c1cn(Cc2cn3cc(C4CC4)ccc3n2)nn1 [Example I-30, N-(3-chloro-2-fluoro-6-(1H-tetrazol-1-yl)benzyl)-1-((6-cyclopropylimidazo[1,2-a]pyridin-2-yl)methyl)-1H-1,2,3-triazole-4-sulfonamide]
2 to 7.1 µM | NCc1ccc(CNS(=O)(=O)c2cnn(Cc3cn4cc(C5CC5)ccc4n3)c2)cc1 [Example I-33, N-(4-(aminomethyl)benzyl)-1-((6-cyclopropylimidazo[1,2-a]pyridin-2-yl)methyl)-1H-pyrazole-4-sulfonamide]
> 7.1 µM | CC(NS(=O)(=O)c1cnn(Cc2cn3cc(C4CC4)ccc3n2)c1)c1ccc(Cl)cc1 (centres unmarked) [Example I-37]
> 7.1 µM | CC(NS(=O)(=O)c1cnn(Cc2cn3cc(C4CC4)ccc3n2)c1)c1cccc(Cl)c1 (centres unmarked) [Example I-38, N-(1-(3-chlorophenyl)ethyl)-1-((6-cyclopropylimidazo[1,2-a]pyridin-2-yl)methyl)-1H-pyrazole-4-sulfonamide]
0.01 to 0.1 µM | COc1ccc(-n2cnnn2)c(CNS(=O)(=O)c2cn(Cc3cn4cc(C5CC5)ccc4n3)nn2)c1F [Example I-40, 1-((6-cyclopropylimidazo[1,2-a]pyridin-2-yl)methyl)-N-(2-fluoro-3-methoxy-6-(1H-tetrazol-1-yl)benzyl)-1H-1,2,3-triazole-4-sulfonamide]
2 to 7.1 µM | Cc1cc(CN)cc(C)c1CNS(=O)(=O)c1cnn(Cc2cn3cc(C4CC4)ccc3n2)c1 [Example I-41, N-(4-(aminomethyl)-2,6-dimethylbenzyl)-1-((6-cyclopropylimidazo[1,2-a]pyridin-2-yl)methyl)-1H-pyrazole-4-sulfonamide]
> 7.1 µM | O=S(=O)(NCc1ccc(Cl)cc1)c1cnn(Cc2cn3cc(C4CC4)ccc3n2)c1 [Example I-42, N-(4-chlorobenzyl)-1-((6-cyclopropylimidazo[1,2-a]pyridin-2-yl)methyl)-1H-pyrazole-4-sulfonamide]
0.1 to 2 µM | Cc1cc(N)nc(C)c1CNS(=O)(=O)c1cnn(Cc2cn3cc(C4CC4)ccc3n2)c1 [Example I-46, N-((6-amino-2,4-dimethylpyridin-3-yl)methyl)-1-((6-cyclopropylimidazo[1,2-a]pyridin-2-yl)methyl)-1H-pyrazole-4-sulfonamide]
> 7.1 µM | O=S(=O)(NCc1cccc(Cl)c1)c1cnn(Cc2cn3cc(C4CC4)ccc3n2)c1 [Example I-47, N-(3-chlorobenzyl)-1-((6-cyclopropylimidazo[1,2-a]pyridin-2-yl)methyl)-1H-pyrazole-4-sulfonamide]
0.01 to 0.1 µM | COc1ccc(-c2c[nH]nn2)c(CNC(=O)c2cn(Cc3cn4cc(C5CC5)ccc4n3)nn2)c1F [Example I-49, 1-((6-cyclopropylimidazo[1,2-a]pyridin-2-yl)methyl)-N-(2-fluor-3-methoxy-6-(1H-1,2,3-triazol-4-yl)benzyl)-1H-1,2,3-triazole-4-carboxamide]
0.1 to 2 µM | COc1ccc(S(C)(=O)=O)c(CNC(=O)c2cn(Cc3cn4cc(C5CC5)ccc4n3)nn2)c1F [Example I-53, 1-((6-cyclopropylimidazo[1,2-a]pyridin-2-yl)methyl)-N-(2-fluoro-3-methoxy-6-(methylsulfonyl)benzyl)-1H-1,2,3-triazole-4-carboxamide]
≤ 0.001 µM | COc1ccc(-n2cnnn2)c(CNC(=O)c2ccn(Cc3cn4cc(C5CC5)ccc4n3)c2)c1F [Example I-54, 1-((6-cyclopropylimidazo[1,2-a]pyridin-2-yl)methyl)-N-(2-fluoro-3-methoxy-6-(1H-tetrazol-1-yl)benzyl)-1H-pyrrole-3-carboxamide]
≤ 0.001 µM | COc1ccc(-n2cnnn2)c(CNC(=O)c2cn(Cc3cn4cc(C5CC5)ccc4n3)cn2)c1F [Example I-55, 1-((6-cyclopropylimidazo[1,2-a]pyridin-2-yl)methyl)-N-(2-fluoro-3-methoxy-6-(1H-tetrazol-1-yl)benzyl)-1H-imidazole-4-carboxamide]

The next lines start with the compound.

Structure (SMILES) | EC50
COc1ccc(-n2cnnn2)c(CNC(=O)c2cn(Cc3cn4cc(C5CC5)cc(C(O)C5COC5)c4n3)nn2)c1F (centres unmarked) [Example I-27, 1-((6-cyclopropyl-8-(hydroxy(oxetan-3-yl)methyl)imidazo[1,2-a]pyridin-2-yl)methyl)-N-(2-fluoro-3-methoxy-6-(1H-tetrazol-1-yl)benzyl)-1H-1,2,3-triazole-4-carboxamide] | ≤ 0.001 µM
COc1ccc(-n2cnnn2)c(C(C)NC(=O)c2cn(Cc3cn4cc(C5CC5)ccc4n3)nn2)c1F (centres unmarked) [Example I-31, 1-((6-cyclopropylimidazo[1,2-a]pyridin-2-yl)methyl)-N-(1-(2-fluoro-3-methoxy-6-(1H-tetrazol-1-yl)phenyl)ethyl)-1H-1,2,3-triazole-4-carboxamide] | 0.001 to 0.01 µM
N=C(N)c1ccc(CNS(=O)(=O)c2cnn(Cc3cn4cc(C5CC5)ccc4n3)c2)cc1 [Example I-32, 4-(((1-((6-cyclopropylimidazo[1,2-a]pyridin-2-yl)methyl)-1H-pyrazole)-4-sulfonamido)methyl)benzimidamide] | 0.001 to 0.01 µM
N#Cc1ccc(CNS(=O)(=O)c2cnn(Cc3cn4cc(C5CC5)ccc4n3)c2)cc1 [Example I-34, N-(4-cyanobenzyl)-1-((6-cyclopropylimidazo[1,2-a]pyridin-2-yl)methyl)-1H-pyrazole-4-sulfonamide] | > 7.1 µM
O=S(=O)(NCCc1ccc(Cl)cc1)c1cnn(Cc2cn3cc(C4CC4)ccc3n2)c1 [Example I-35, N-(4-chlorophenethyl)-1-((6-cyclopropylimidazo[1,2-a]pyridin-2-yl)methyl)-1H-pyrazole-4-sulfonamide] | > 7.1 µM
O=S(=O)(NCCOc1ccccc1)c1cnn(Cc2cn3cc(C4CC4)ccc3n2)c1 [Example I-36, 1-((6-cyclopropylimidazo[1,2-a]pyridin-2-yl)methyl)-N-(2-phenoxyethyl)-1H-pyrazole-4-sulfonamide] | > 7.1 µM
Cc1cc(C(=N)N)cc(C)c1CNS(=O)(=O)c1cnn(Cc2cn3cc(C4CC4)ccc3n2)c1 [Example I-39, 4-(((1-((6-cyclopropylimidazo[1,2-a]pyridin-2-yl)methyl)-1H-pyrazole)-4-sulfonamido)methyl)-3,5-dimethylbenzimidamide] | 0.01 to 0.1 µM
Cc1cc(C#N)cc(C)c1CNS(=O)(=O)c1cnn(Cc2cn3cc(C4CC4)ccc3n2)c1 [Example I-43, N-(4-cyano-2,6-dimethylbenzyl)-1-((6-cyclopropylimidazo[1,2-a]pyridin-2-yl)methyl)-1H-pyrazole-4-sulfonamide] | > 7.1 µM
O=S(=O)(NCCc1cccc(Cl)c1)c1cnn(Cc2cn3cc(C4CC4)ccc3n2)c1 [Example I-44, N-(3-chlorophenethyl)-1-((6-cyclopropylimidazo[1,2-a]pyridin-2-yl)methyl)-1H-pyrazole-4-sulfonamide] | > 7.1 µM
COc1ccc(-n2cnnn2)c(CNS(=O)(=O)c2cnn(Cc3cn4cc(C5CC5)ccc4n3)c2)c1F [Example I-45, 1-((6-cyclopropylimidazo[1,2-a]pyridin-2-yl)methyl)-N-(2-fluoro-3-methoxy-6-(1H-tetrazol-1-yl)benzyl)-1H-pyrazole-4-sulfonamide] | 0.001 to 0.01 µM
COc1ccc(S(=O)(=O)N2CCOCC2)c(CNC(=O)c2cn(Cc3cn4cc(C5CC5)ccc4n3)nn2)c1F [Example I-48, 1-((6-cyclopropylimidazo[1,2-a]pyridin-2-yl)methyl)-N-(2-fluoro-3-methoxy-6-(morpholinosulfonyl)benzyl)-1H-1,2,3-triazole-4-carboxamide] | 0.001 to 0.01 µM
COc1ccc(-c2c[nH]nn2)c(CNC(=O)c2cn(Cc3cn4cc(C5CC5)ccc4n3)nn2)c1F [Example I-50] | > 7.1 µM
CS(=O)(=O)c1ccccc1CNC(=O)c1cn(Cc2cn3cc(C4CC4)ccc3n2)nn1 [Example I-51, 1-((6-cyclopropylimidazo[1,2-a]pyridin-2-yl)methyl)-N-(2-(methylsulfonyl)benzyl)-1H-1,2,3-triazole-4-carboxamide] | 0.1 to 2 µM
COc1ccc(-n2cnc(C(F)(F)F)n2)c(CNC(=O)c2cn(Cc3cn4cc(C5CC5)ccc4n3)nn2)c1F [Example I-52, 1-((6-cyclopropylimidazo[1,2-a]pyridin-2-yl)methyl)-N-(2-fluoro-3-methoxy-6-(3-(trifluoromethyl)-1H-1,2,4-triazol-1-yl)benzyl)-1H-1,2,3-triazole-4-carboxamide] | ≤ 0.001 µM
